Data on 31 compounds can be found in ChEMBL document CHEMBL1125188, “Synthesis and evaluation of stilbene and dihydrostilbene derivatives as potential anticancer agents that inhibit tubulin polymerization” (J Med Chem, 1991).

One assay concerns SK-MEL-5. The assay is described as follows: Cytotoxic concentration required to inhibit 50% cell growth in SKMEL-5 melanoma cell lines. The format is functional. The settings on record: Homo sapiens, read-out: ED50 (the source's name).
The next assay relates to MLM. Description: Cytotoxic concentration required to inhibit 50% cell growth in MLM melanoma cell lines. The format is functional. The settings on record: Homo sapiens, read-out: ED50 (the source's name).
Another assay deals with Tubulin (Bos taurus, UniProt Q6B856+Q862L2+Q862F3). Description: Ability to inhibit Tubulin polymerization in Bovine brain. The format is functional, tissue-based.
The next assay deals with A549. The assay is described as follows: Cytotoxic concentration required to inhibit 50% cell growth in A-549 lung carcinoma cell lines. In kind it is functional. The settings on record: Homo sapiens, read-out: ED50 (the source's name).
In a further assay the test system is MCF7. The assay is described as follows: Cytotoxic concentration required to inhibit 50% cell growth in MCF-7 breast carcinoma cell lines. The settings on record: Homo sapiens, read-out: ED50 (the source's name). In kind it is functional.
The next assay has as its system HT-29. Description: Cytotoxic concentration required to inhibit 50% cell growth in HT-29 colon adenocarcinoma cell lines. In kind it is functional. The settings on record: Homo sapiens, read-out: ED50 (the source's name).

pEC50: −log10 of the molar value. Bounds are passed on as bounds.

For the compound `COc1ccc(CCc2cc(OC)c(OC)c(OC)c2)cc1O`, the pEC50 in the assay with SK-MEL-5 is 8.68; with MLM, 8.00; in the assay on A549 it was 8.00; with MCF7, 6.48; with HT-29, 7.09. The IC50 (in general, the concentration at which inhibition is half-maximal) on Tubulin is 3300 nM.

For the compound `COc1cc(/C=C\c2cccnc2)cc(OC)c1OC`, the pEC50 with SK-MEL-5 is 5.22; with MLM, < 4.60; with A549, 4.86; with MCF7, 4.83; in the assay on HT-29, 5.01.

With `COc1cc(/C=C\c2ccc(N(C)C)cc2)cc(OC)c1OC`, the pEC50 with SK-MEL-5 is 9.82; in the assay with MLM, 8.03; in the assay on A549, 8.39; with MCF7, 8.24; in the assay on HT-29, 8.09. In addition, on Tubulin, the IC50 turned out to be 3400 nM.

As to `COc1cc(OC)c(OC)cc1CCc1cc(OC)c(OC)c(OC)c1`, the pEC50 in the assay with SK-MEL-5, in the assay on MLM, in the assay with A549, in the assay on MCF7 and in the assay on HT-29 was < 4.60 throughout.

Consider `COc1cc(CCc2ccc(N(C)C)cc2)cc(OC)c1OC`, for which the pEC50 in the assay with SK-MEL-5 is 7.23; with MLM, 6.92; in the assay with A549, 7.08; with MCF7, 7.19; with HT-29, 7.11. For the same compound, the 50% inhibitory concentration (IC50) against Tubulin was determined as 29000 nM.

As for `COc1cc(CCc2ccc(OC(C)=O)cc2)cc(OC)c1OC`, the pEC50 is < 4.60 in the assay with SK-MEL-5; < 4.60 in the assay on MLM; 4.72 in the assay on A549; < 4.60 in the assay with MCF7; < 4.60 in the assay with HT-29.

For `COc1cc(/C=C/c2ccc([N+](=O)[O-])cc2)cc(OC)c1OC`, the pEC50 in the assay on SK-MEL-5, with MLM, in the assay on A549, in the assay on MCF7 and in the assay on HT-29 was < 4.60 throughout.

For the compound `COc1ccc(CNc2cc(OC)cc(OC)c2)cc1`, the pEC50 with SK-MEL-5, in the assay on MLM, in the assay on A549, with MCF7 and in the assay on HT-29 was < 4.60 in each case.

Regarding `COc1cccc(/C=C\c2cc(OC)c(OC)c(OC)c2)c1`, the pEC50 in the assay with SK-MEL-5 is 7.22; in the assay on MLM it was 5.85; with A549, 6.89; in the assay on MCF7, 6.85; in the assay on HT-29 it was 7.05. At Tubulin, this compound registered a half-maximal inhibitory concentration (IC50) of 8800 nM.

As for `COc1cc(/C=C\c2ccc(Cl)cc2)cc(OC)c1OC`, the pEC50 in the assay with SK-MEL-5 is 8.00; in the assay with MLM, 6.77; in the assay with A549, 7.10; with MCF7, 6.74; in the assay on HT-29, 7.30. The IC50 against Tubulin turned out to be 4800 nM.

On to `COc1ccc(/C=C\c2cc(OC)c(OC)c(OC)c2)c(Cl)c1`, for which the pEC50 with SK-MEL-5 is 7.77; with MLM, 6.85; in the assay with A549, 7.29; in the assay with MCF7 it was 7.34; with HT-29 it was 7.18. For the same compound, at Tubulin, the IC50 was 3500 nM.

For the compound `COc1cc(/C=C/c2ccccc2)cc(OC)c1OC`, the pEC50 with SK-MEL-5, with MLM, in the assay on A549, in the assay with MCF7 and in the assay on HT-29 was < 4.60 each time.

Regarding `COc1ccc(/C=C/c2ccccc2)cc1OC`, the pEC50 in the assay with SK-MEL-5, in the assay with MLM, in the assay on A549, in the assay with MCF7 and in the assay on HT-29 was < 4.60 in each case.

For `COc1ccc(C(=O)Nc2cc(OC)cc(OC)c2)cc1`, the pEC50 in the assay with SK-MEL-5, in the assay with MLM, in the assay with A549, in the assay on MCF7 and in the assay with HT-29 was < 4.60 in each case.

Consider `COc1cc(/C=C/c2cc(OC)c(OC)c(OC)c2)cc(OC)c1`, for which the pEC50 with SK-MEL-5, in the assay on MLM, in the assay on A549, with MCF7 and in the assay with HT-29 was < 4.60 throughout.

As to `COc1ccc(CCc2cc(OC)c(OC)c(OC)c2)cc1`, the pEC50 in the assay with SK-MEL-5 was 9.85; with MLM, 9.74; in the assay with A549 it was 9.74; with MCF7, 9.80; in the assay on HT-29, 9.60. The compound also came in with an IC50 against Tubulin of 7900 nM.

On to `COc1ccc(/C=C\c2cc(OC)c(OC)c(OC)c2)cc1`, for which the results for the pEC50 with MLM, in the assay with A549 and in the assay on HT-29 were 10.03, 10.66 and 10.57, respectively. The compound further came in with an IC50 against Tubulin of 2200 nM.

On to `COc1cc(CCc2cc(OC)c(OC)c(OC)c2)cc(OC)c1OC`, for which the pEC50 in the assay with SK-MEL-5, with MLM, in the assay with A549, in the assay with MCF7 and in the assay with HT-29 was < 4.60 throughout.

Take `COc1ccc(CNc2cc(OC)c(OC)c(OC)c2)cc1OC`: the pEC50 in the assay on SK-MEL-5, in the assay on MLM, in the assay with A549, in the assay with MCF7 and in the assay on HT-29 was < 4.60 throughout.

Take `COc1cc(/C=C\c2ccc(Br)cc2)cc(OC)c1OC`: the pEC50 with SK-MEL-5 was 8.17; with MLM it was 7.85; with A549, 7.96; in the assay with MCF7, 7.80; with HT-29, 8.09. The same compound had an IC50 at Tubulin of 3100 nM.

On to `COc1ccc(NCc2cc(OC)c(OC)c(OC)c2)cc1`, for which the pEC50 is 9.15 in the assay with SK-MEL-5; 8.80 with MLM; 8.72 in the assay with A549; 8.62 in the assay on MCF7; 9.00 in the assay with HT-29. The IC50 at Tubulin worked out at 23000 nM.

On to `COc1cc(CNc2cc(OC)c(OC)c(OC)c2)cc(OC)c1OC`, for which the pEC50 in the assay on SK-MEL-5, in the assay on MLM, in the assay on A549, with MCF7 and with HT-29 was < 4.60 each time.

On to `COc1cc(/C=C\c2ccccc2)cc(OC)c1OC`, for which the pEC50 was 6.92 in the assay on SK-MEL-5; < 4.60 in the assay with MLM; 6.77 in the assay on A549; 6.60 with MCF7; 7.08 in the assay on HT-29. This compound registered an IC50 on Tubulin of 36000 nM.

In the case of `COc1cc(/C=C\c2ccc(OC(C)=O)cc2)cc(OC)c1OC`, the pEC50 with SK-MEL-5 was 5.22; in the assay with MLM, 5.20; with A549, 5.77; in the assay on MCF7, 5.52; in the assay with HT-29 it was 5.22. The same compound displayed a half-maximal inhibitory concentration (IC50) at Tubulin of 29000 nM.

As to `COc1ccc(NCc2cc(OC)cc(OC)c2)cc1`, the pEC50 with SK-MEL-5 is 5.62; in the assay on MLM, < 4.60; in the assay with A549, 5.24; in the assay on MCF7, 5.22; in the assay on HT-29 it was 4.75. At Tubulin, this compound displayed an IC50 of 29000 nM.

For `COc1ccc(CNc2cc(OC)c(OC)c(OC)c2)cc1`, the pEC50 was 5.95 with SK-MEL-5; < 4.60 in the assay with MLM; 6.08 with A549; 6.07 in the assay with MCF7; 5.65 in the assay on HT-29. Also, the IC50 on Tubulin is > 50000 nM.

Regarding `COc1ccc(/C=C/c2cc(OC)c(OC)c(OC)c2)cc1`, the pEC50 with SK-MEL-5 was 6.09; with MLM it was 5.68; in the assay on A549 it was 5.93; in the assay on MCF7, 5.98; in the assay with HT-29 it was 5.74. Moreover, at Tubulin, the IC50 was > 50000 nM.

For `COc1cc(/C=C/c2ccc(N(C)C)cc2)cc(OC)c1OC`, the pEC50 in the assay on SK-MEL-5 is 8.34; with MLM, 7.90; with A549 it was 8.21; in the assay on MCF7 it was 7.09; in the assay on HT-29, 8.16. Moreover, the IC50 on Tubulin is > 50000 nM.

As to `COc1cc(/C=C/c2ccc(Br)cc2)cc(OC)c1OC`, the pEC50 in the assay on SK-MEL-5 was 5.19; with MLM, 5.29; in the assay with A549, 5.19; in the assay with MCF7, 5.04; with HT-29, 4.90.

As for `COc1cc(/C=C/c2ccc(OC)c(OC)c2)cc(OC)c1` [(E)-3,4,3',5'-TETRAMETHOXYSTILBENE], the pEC50 in the assay on SK-MEL-5, with MLM, with A549, in the assay on MCF7 and in the assay with HT-29 was < 4.60 throughout.

For `COc1cccc2c1C(=O)c1c(O)c3c(c(O)c1C2=O)C[C@@](O)(C(=O)CO)C[C@@H]3O[C@H]1C[C@H](N)[C@H](O)[C@H](C)O1` [DOXORUBICIN], the pEC50 with SK-MEL-5 is 7.49; in the assay with MLM, 6.89; with A549, 7.54; in the assay on MCF7, 7.51; in the assay on HT-29, 7.26.
